Key:
[1] = Plasma concentration in ICR mouse at 10 mg/kg administered intratracheally measured after 1 min by RP-HPLC analysis; format: ADME, organism-based; conditions: inhaled or intranasal
[2] = Plasma concentration in ICR mouse at 7.5 mg/kg, iv measured after 1 min by RP-HPLC analysis; format: ADME, organism-based

In the case of `C[N+]1(C)[C@@H]2C[C@@H](OC(=O)C(O)(c3cccs3)c3cccs3)C[C@H]1[C@@H]1O[C@@H]12.[Br-]`, the concentration at 1 min [1] is reported as 3000 ng/mL and the concentration at 1 min [2] is reported as 40000 ng/mL.
